Source: publication PMC6127852 (Journal of Enzyme Inhibition and Medicinal Chemistry, 2018)
Converted amounts (≈) assume the structure as drawn.

Tests used:
[1] = tested on: bloodstream form T. brucei (strain 221); experiment: Anti-trypanosomal screening, resazurin; assay type: cell-based; details: Trypanosoma brucei, mean of triplicate ± SEM
Method: Bloodstream form T. brucei (strain 221) were cultured in modified Iscove’s medium, as outlined[67] and trypanocidal assays were performed using 96-well microtitre plates. […] Resazurin was added after 48 h, the plates incubated for a further 16 h, and then read in a Spectramax plate reader (Molecular Devices Corporation, San Jose, CA). The data were analysed using GraphPad Prism (GraphPad, La Jolla, CA). Each drug concentration was tested in triplicate.

[2] = tested on: E. coli ATCC 25925; experiment: Broth microdilution MIC, E. coli ATCC 25925; assay type: cell-based; details: Escherichia coli, ATCC25925; Table S2
Method: (§1) The compounds were evaluated for their in vitro anti-bacterial activity against Gram-positive bacteria: S. aureus (ATCC 25923), MRSA, methicillin-sensitive S. aureus (MSSA), E. faecalis, vancomycin-resistant E. faecium (VREF), and Gram-negative bacteria: E. coli (ATCC 25925), P. aeruginosa (ATCC 27853), A. baumannii (ATCC 19606) and ESBL-producing K. pneumoniae (ATCC 27736). Standard broth microdilution method as recommended in guidelines of Clinical and Laboratory Standards Institute[61] ^, [65] ^, [66] was applied and the minimum inhibitory concentration (MIC) of compounds was tested. In short, testing was performed in U-bottomed 96-well sterile plastic microdilution trays (Falcon 3077, Becton Dickinson Labware, Franklin Lakes, NJ) in cation (Ca^2+ and Mg^2+) adjusted Mueller–Hinton broth medium (Becton Dickinson and Co., Cockeysville, MD). All testings were performed in triplicate.
(§2) The in vitro anti-bacterial activity of 5-amidinobenzimidazoles 7a–7e, 8a–8e, and 9a–9e was tested against Gram-positive bacteria including S. aureus (ATCC 25923), Enterococcus faecalis (ATCC 29212), and Gram-negative bacteria including E. coli (ATCC 25925), K. pneumoniae (ATCC 700803), P. aeruginosa (ATCC 27853), and Acinetobacter baumannii (ATCC 19606).

[3] = tested on: K. pneumonia ATCC 700803; experiment: Broth microdilution MIC, K. pneumoniae ATCC 700803; assay type: cell-based; details: Klebsiella pneumoniae, ATCC700803; Table S2
Method: as §1, §2

[4] = tested on: polyA-polyU (RNA, polymer) A/U; experiment: UV melting at 260 nm; details: PBS, I = 0.05 M, cations not specified, pH 7, r = 0.3 [compound]/[polynucleotide]
[5] = tested on: ctDNA; experiment: Thermal melting (ΔTm) of ctDNA; assay type: binding, calf; details: PBS, pH 7; for ΔTm, ctDNA, r = 0.3: r = [compound]/[polynucleotide] 0.3, error ±0.5 °C
Method: (§3) T m experiments were conducted with a Perkin Elmer Lambda 25 spectrophotometer in 1 cm quartz cuvettes. The absorbance of the DNA/RNA-compound complex was monitored at 260 nm as a function of temperature. The absorbance of the ligands was subtracted from every curve, and the absorbance scale was normalised. The ΔT m values were calculated by subtracting T m of the free nucleic acid from T m of the complex. Every reported ΔT m value was the average of at least two measurements. The error of ΔT m is ±0.5 °C. All data were graphed and analysed using Origin software version 9.0.
(§4) Denaturation experiments were carried out at different amounts of the compounds (r = 0.1, 0.3, 0.5, and 0.7 eq; r = [compound]/[polynucleotide]) with ctDNA and polyA-polyU.

[6] = tested on: S. aureus MRSA; experiment: Broth microdilution MIC, MRSA clinical strain; assay type: cell-based; details: Staphylococcus aureus, antibiotic-resistant clinical strain
Method: as §1

[7] = tested on: polyG-polyC (polyC-polyG) (RNA, polymer) G/C; experiment: UV-Vis titration, Scatchard; details: PBS, I = 0.05 M (Table 1 says I = 0.015 M), cations not specified, I = 0.015 M (Methods: 0.05 M)
[8] = tested on: P. aeruginosa ESBL; experiment: Broth microdilution MIC, ESBL P. aeruginosa clinical strain; assay type: cell-based; details: Pseudomonas aeruginosa
[9] = tested on: E. faecium VRE; experiment: Broth microdilution MIC, VRE clinical strain; assay type: cell-based; details: Enterococcus faecium
Method: as §1

[10] = tested on: polyA-polyU; experiment: UV–Vis titration with polyA-polyU (Scatchard); assay type: binding; details: for Hypochromic effect H/%, polyA-polyU: UV–Vis titration, calculated by Scatchard equation; for Hypochromic effect H/%, polyA-polyU / log Ks, polyA-polyU: PBS, pH 7; for log Ks, polyA-polyU: binding constant, Scatchard
Method: (§5) Polynucleotides were purchased as follows: polyG–polyC, polyA–polyU (Sigma-Aldrich, St. Louis, MO), calf thymus ctDNA (Aldrich). Polynucleotides were dissolved in PBS buffer, I = 0.05 mol dm^−3, pH 7.0. The calf thymus ctDNA was additionally sonicated and filtered through a […] filter. The polynucleotide concentration was spectroscopically determined as the concentration of nucleobases.
(§6) All UV–Vis absorbance measurements were conducted on a Perkin Elmer Lambda 25 spectrophotometer (Perkin Elmer, Waltham, MA). A quartz cell with a 1 cm path length was used for all absorbance studies. Compound stock solutions were 1 mM. The DNA/RNA at increasing ratios was then titrated into the compound buffer solution (1.48 × 10^−5 mol dm^−3) and the corresponding absorption spectra were recorded under the same conditions. All data were graphed and analysed using Origin software version 9.0 (OriginLab Corporation, Northampton, MA). The stability constants (Ks) and [bound compound]/[polynucleotide phosphate] ratios (n) were calculated according to the Scatchard Equation[63] ^, [64]. Values for Ks and n given in Table 1 all have satisfying correlation coefficients (0.99).
(§7) The binding constants logKs and the density of the binding sites n were calculated using Scatchard plot analysis. In addition, the binding constants Ks for compounds 8b and 8e were calculated only for titration data taken at the r ≥ 0.1, because below that ratio changes in absorption maxima were too small for accurate calculation (ΔA ≤ 0.04) (Table 1). The binding constants Ks and ratios n obtained by processing UV–Vis titration data using the Scatchard equation are summarised in Table 1.

[11] = tested on: K. pneumoniae ESBL; experiment: Broth microdilution MIC, ESBL K. pneumoniae clinical strain; assay type: cell-based; details: Klebsiella pneumoniae
Method: as §1

[12] = tested on: polyA-polyU (RNA, polymer) A/U; experiment: UV-Vis titration, Scatchard; details: PBS, I = 0.05 M (Table 1 says I = 0.015 M), cations not specified, I = 0.015 M (Methods: 0.05 M)
[13] = tested on: E. coli ESBL; experiment: Broth microdilution MIC, ESBL E. coli clinical strain; assay type: cell-based; details: Escherichia coli
[14] = biological target: polyC-polyG; experiment: UV–Vis titration with polyC-polyG (Scatchard); assay type: binding; details: PBS, pH 7; for log Ks, polyC-polyG: binding constant, Scatchard; for Hypochromic effect H/%, polyC-polyG: UV–Vis titration, calculated by Scatchard equation
Method: as §5, §6, §7

[15] = tested on: calf thymus ctDNA; experiment: UV–Vis titration with ctDNA (Scatchard); assay type: binding; details: PBS, pH 7; for Hypochromic effect H/%, ctDNA: UV–Vis titration, calculated by Scatchard equation; for log Ks, ctDNA: binding constant, Scatchard
Method: as §5, §6, §7

[16] = tested on: P. aeruginosa ATCC 27853; experiment: Broth microdilution MIC, P. aeruginosa ATCC 27853; assay type: cell-based; details: Pseudomonas aeruginosa, ATCC27853; Table S2
Method: as §1, §2

[17] = tested on: S. aureus MSSA; experiment: Broth microdilution MIC, MSSA clinical strain; assay type: cell-based; details: Staphylococcus aureus
Method: as §1

[18] = tested on: polyA-polyU; experiment: Thermal melting (ΔTm) of polyA-polyU; assay type: binding; details: for ΔTm, polyA-polyU, r = 0.1: PBS, pH 7; for ΔTm, polyA-polyU, r = 0.3 / ΔTm, polyA-polyU, r = 0.5: first melting midpoint; for ΔTm, polyA-polyU, r = 0.3, second melting midpoint / ΔTm, polyA-polyU, r = 0.5, second melting midpoint: footnote c: biphasic melting curve
Method: as §3, §4

[19] = tested on: E. faecalis ATCC 29212; experiment: Broth microdilution MIC, E. faecalis ATCC 29212; assay type: cell-based; details: Enterococcus faecalis, ATCC29212; Table S2
Method: as §1, §2

[20] = tested on: A. baumannii ATCC 19606; experiment: Broth microdilution MIC, A. baumannii ATCC 19606; assay type: cell-based; details: Acinetobacter baumannii, ATCC19606; Table S2
Method: as §1, §2

[21] = tested on: S. aureus ATCC 25923; experiment: Broth microdilution MIC, S. aureus ATCC 25923; assay type: cell-based; details: Staphylococcus aureus, ATCC25923; Table S2
Method: as §1, §2

SMILES	IC50 [1] [µM]	IC90 [1] [µM]	MIC [2] [µg/mL]	MIC [3] [µg/mL]	ΔTm, ctDNA, r = 0.5 [5] [°C]	ΔTm, ctDNA, r = 0.7 [5] [°C]	ΔTm, ctDNA, r = 0.3 [5] [°C]	MIC [6] [µg/mL]	MIC [8] [µg/mL]	MIC [9] [µg/mL]	log Ks, polyA-polyU [10]	MIC [13] [µg/mL]	log Ks, polyC-polyG [14]	Hypochromic effect H/%, ctDNA [15] [%]	log Ks, ctDNA [15]	MIC [16] [µg/mL]	MIC [17] [µg/mL]	ΔTm, polyA-polyU, r = 0.1 [18] [°C]	ΔTm, polyA-polyU, r = 0.3 [18] [°C]	MIC [19] [µg/mL]	further results
N=C(N)c1ccc2[nH]c(-c3ccc(OCc4cn(Cc5ccccc5)nn4)cc3)nc2c1 [Compound 7d]	12.9 ± 0.2	18.2 ± 1	32 (≈ 75.6 µM)	64 (≈ 151 µM)	3.86	3.62	3.12	16 (≈ 37.8 µM)	32 (≈ 75.6 µM)	32 (≈ 75.6 µM)	5.94	16 (≈ 37.8 µM)	6.56	40.4	5.78	32 (≈ 75.6 µM)	32 (≈ 75.6 µM)	2.06	1.14	64 (≈ 151 µM)	ΔTm ([4]; error ±0.5, per base): 1.14 °C; log Ks ([7]; pH 7, per base): 6.56; Hypochromic effect H/%, polyA-polyU [10]: 32.5%; MIC [11]: 16 µg/mL (≈ 37.8 µM); log Ks ([12]; pH 7, per base): 5.94; MIC [20]: > 256 µg/mL; MIC [21]: 32 µg/mL (≈ 75.6 µM)
c1ccc(Cn2cc(COc3ccc(-c4nc5cc(C6=NCCN6)ccc5[nH]4)cc3)nn2)cc1 [Compound 9d]	10.8 ± 0.4	> 25	128 (≈ 285 µM)	> 256	3.52	2.60	3.31	64 (≈ 142 µM)	128 (≈ 285 µM)	64 (≈ 142 µM)	5.89	128 (≈ 285 µM)	6.59	24.6	5.84	128 (≈ 285 µM)	64 (≈ 142 µM)	1.26	1.42	128 (≈ 285 µM)	ΔTm ([4]; error ±0.5, biphasic, second midpoint 10.30, per base): 1.42 °C; log Ks ([7]; pH 7, per base): 6.59; Hypochromic effect H/%, polyA-polyU (from experimental data) ([10]; footnote e: calculated from experimental data): 55.5 ^e %; log Ks ([12]; pH 7, n fixed, per base): 5.89; Hypochromic effect H/%, polyC-polyG [14]: 5.89%; ΔTm, polyA-polyU, r = 0.3, second melting midpoint [18]: 10.30^c °C; ΔTm, polyA-polyU, r = 0.5 [18]: 2.06 °C; ΔTm, polyA-polyU, r = 0.5, second melting midpoint [18]: 13.29^c °C; MIC [20]: > 256 µg/mL; MIC [21]: 64 µg/mL (≈ 142 µM)
Cl.Cl.c1ccc(SCn2cc(COc3ccc(-c4nc5cc(C6=NCCN6)ccc5[nH]4)cc3)nn2)cc1 [Compound 9e, 5–(4,5-Dihydro-1H-imidazol-2-yl)-2–(4-((1-(phenylthiomethyl)-1H-1,2,3-triazol-4-yl)methoxy)phenyl)-1H-benz[d]imidazole dihydrochloride]	9.7 ± 0.2	14 ± 0.3	64	> 256	3.47	3.60	2.87	64	64	32	5.36	64	4.29	41.1	6.21	128	64	1.11	0.47	128	log Ks ([7]; pH 7, n fixed, per base): 4.29; Hypochromic effect H/%, polyA-polyU [10]: 31.6%; log Ks ([12]; pH 7, per base): 5.36; Hypochromic effect H/%, polyC-polyG [14]: 5.21%; ΔTm, polyA-polyU, r = 0.3, second melting midpoint [18]: 12.46^c °C; ΔTm, polyA-polyU, r = 0.5 [18]: 0.47 °C; ΔTm, polyA-polyU, r = 0.5, second melting midpoint [18]: 13.89^c °C; MIC [20]: > 256 µg/mL; melting point: 162 to 164 °C; MIC [21]: 32 µg/mL
